Values quoted from earlier work as cited in patent US10966421B2, “Method and device for collecting and preserving cells for analysis” (priority 2002, dated 2021).

How the values were obtained:
[1] = in vivo
[2] = in vivo; remark: listed apart in the source
[3] = in vivo; remark: listed apart in the source

Row | Structure (SMILES) | Dermal Toxicity [1] | LD50 [2] | Inhalation Toxicity [3]
1 | O=C(NCO)N(CO)C1(CO)C(=O)NC(=O)N1CO (centres unmarked) [Diazolidinyl urea, diazolidinyl urea] | 2000 mg/kg | 2570 mg/kg | None
2 | C=O [Formaldehyde, formaldehyde, reference compound] | 270 mg/kg |  | 500 mg/kg
